Read-outs that look alike come from different tables or passages of the source.
What was measured:
hα3β4 AChR [1] = molecular target: T1, hα3β4 AChR (Homo sapiens, UniProt P30926+P32297); experiment: cell-based; format: cell-based
hα3β4 AChR [2] = molecular target: T1, hα3β4 AChR; format: binding; settings: for nH: radioligand [3H]TCP
rat α3β4 AChRs = settings: 86Rb+ efflux, rat α3β4 AChRs ref Hernandez et al., 2000; cited from earlier work
hα3β4 AChR [3] = molecular target: T1, hα3β4 AChR; format: binding; settings: for nH: radioligand [3H]ibogaine
hα3β4 AChR [4] = molecular target: T1, hα3β4 AChR; format: binding; settings: for ΔG^20: 293 K; for Ea (energy of activation of the dissociation process): Arrhenius plot; for ΔH°: van't Hoff plot
hα3β4 AChR [5] = molecular target: T1, hα3β4 AChR; experiment: Binding kinetics by non-linear chromatography on the CMAC-hα3β4 AChR column
hα3β4 AChR [6] = molecular target: T1, hα3β4 AChR; experiment: Equilibrium binding of [3H]ibogaine to hα3β4 AChR membranes
[7] = Epibatidine treated column (desensitized state)
[8] = κ-BTx treated column (resting state)
[9] = Desensitized state (1 µM (−)-nicotine)
[10] = AChR in the resting state (κ-BTx), 20 °C

T1 sequence (P32297 32-505): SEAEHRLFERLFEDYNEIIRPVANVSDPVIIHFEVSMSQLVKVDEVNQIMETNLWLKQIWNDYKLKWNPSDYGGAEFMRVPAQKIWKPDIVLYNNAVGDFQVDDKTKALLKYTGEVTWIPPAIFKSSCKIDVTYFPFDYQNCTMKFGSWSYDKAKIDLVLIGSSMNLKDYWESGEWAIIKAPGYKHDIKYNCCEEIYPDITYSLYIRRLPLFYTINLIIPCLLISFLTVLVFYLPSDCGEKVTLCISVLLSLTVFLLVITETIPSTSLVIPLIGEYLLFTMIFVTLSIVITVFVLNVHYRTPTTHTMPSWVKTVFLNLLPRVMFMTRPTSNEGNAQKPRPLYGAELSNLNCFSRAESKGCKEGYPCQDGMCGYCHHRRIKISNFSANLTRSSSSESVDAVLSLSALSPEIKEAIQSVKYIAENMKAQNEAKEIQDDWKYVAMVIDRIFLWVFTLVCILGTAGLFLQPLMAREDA
T1 sequence (P30926 22-498): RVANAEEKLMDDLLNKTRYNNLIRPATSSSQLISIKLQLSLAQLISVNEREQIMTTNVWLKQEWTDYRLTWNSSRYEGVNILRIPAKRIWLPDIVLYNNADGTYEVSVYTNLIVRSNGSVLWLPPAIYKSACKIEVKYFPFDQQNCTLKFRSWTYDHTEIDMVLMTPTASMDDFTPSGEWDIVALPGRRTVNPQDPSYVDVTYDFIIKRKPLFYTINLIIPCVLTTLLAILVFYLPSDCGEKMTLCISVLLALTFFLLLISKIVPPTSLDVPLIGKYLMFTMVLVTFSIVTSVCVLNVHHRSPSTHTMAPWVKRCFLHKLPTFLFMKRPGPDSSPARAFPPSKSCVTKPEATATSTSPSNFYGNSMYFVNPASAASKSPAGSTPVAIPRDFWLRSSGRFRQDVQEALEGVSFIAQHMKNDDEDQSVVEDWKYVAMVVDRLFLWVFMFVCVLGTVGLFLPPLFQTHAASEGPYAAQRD

Compound: Clc1ccc(C2CC3CCC2N3)cn1 (racemic) [(±)-epibatidine, (±)-Epibatidine]
- nH (Hill coefficient) (hα3β4 AChR [1]; activation of the hα3β4 AChR, Ca2+ influx): 1.21 ± 0.06

Compound: c1ccc(C2(N3CCCCC3)CCCCC2)cc1 [PCP, phencyclidine]
- Ki (hα3β4 AChR [2]): 10 ± 2 µM
- nH (hα3β4 AChR [2]; Resting state): 0.87 ± 0.10
- IC50 (rat α3β4 AChRs): 7 ± 1.3 µM
- Ki (hα3β4 AChR [3]): 17 ± 2 µM
- nH (hα3β4 AChR [3]; Resting state): 0.88 ± 0.07
- times lower affinity compared to ibogaine (hα3β4 AChR [3]; resting hα3β4 AChR, Table 2 values): 10–16 times
- IC50 (hα3β4 AChR [1]): 8.5 ± 1.4 µM
- fold higher inhibitory potency in the hα3β4 AChR than in the muscle AChR (hα3β4 AChR [1]; compared with muscle AChR value of ref Fryer and Lukas, 1999): ~ 2 fold
- nH (Hill coefficient) (hα3β4 AChR [1]; inhibition of (±)-epibatidine-induced Ca2+ influx, HEK293-hα3β4 cells): 0.92 ± 0.02

Compound: 7-ethyl-6,2,7,8,9,10,12,13-octahydro-2-methoxy-6,9-methano 5H-pyrido(1′,2′:1,2-azepine (4,5-)indole) [Ibogaine]
- ΔH^+ (enthalpy change of the transition state) (hα3β4 AChR [4]; [7]): 12.7 ± 1.8 kJmol^−1
- −TΔS° (hα3β4 AChR [4]; [7]): −29.4 ± 0.3 kJmol-^1
- ΔG^20 (hα3β4 AChR [4]; [7]): −37.0 ± 0.1 kJmol^−1
- Ea (energy of activation of the dissociation process) (hα3β4 AChR [4]; [7]): 15.1 ± 1.8 kJmol^−1
- ΔH° (hα3β4 AChR [4]; [7]): -1.82 ± 0.072 kcal/mol
- ΔH^+ (enthalpy change of the transition state) (hα3β4 AChR [4]; [8]): 11.2 ± 0.7 kJmol^−1
- −TΔS° (hα3β4 AChR [4]; [8]): −26.2 ± 0.7 kJmol-^1
- ΔG^20 (hα3β4 AChR [4]; [8]): −36.7 ± 0.1 kJmol^−1
- Ea (energy of activation of the dissociation process) (hα3β4 AChR [4]; [8]): 13.7 ± 0.7 kJmol^−1
- ΔH° (hα3β4 AChR [4]; [8]): -2.51 ± 0.17 kcal/mol
- nH (hα3β4 AChR [2]; [9]): 0.95 ±0.13
- nH (hα3β4 AChR [2]; Resting state): 0.79 ± 0.13
- fold higher affinity for desensitized than resting AChR (hα3β4 AChR [2]; [3H]TCP competition): ~ 2.6 fold
- koff (hα3β4 AChR [5]): 0.078 ± 0.002 s⁻¹
- kon (hα3β4 AChR [5]): 300000 ± 10000 M⁻¹ s⁻¹
- ΔG (hα3β4 AChR [5]): -8.82 ± 0.024 kcal/mol
- Ka (association constant) (hα3β4 AChR [5]; [10]): 3.47 ± 0.12 µM⁻¹
- koff (hα3β4 AChR [5]; [10]): 0.088 ± 0.001 s⁻¹
- kon (hα3β4 AChR [5]; AChR in the resting state (κ-BTx), kon = koff·Ka): 310000 ± 20000 M⁻¹ s⁻¹
- association rate constants kon (order of magnitude) (hα3β4 AChR [5]; both conformational states): ~ 10^5 M^−1 s^−1
- nH (hα3β4 AChR [3]; [9]): 1.01 ±0.11
- nH (hα3β4 AChR [3]; Resting state): 0.82 ± 0.08
- fold higher affinity for desensitized/nicotine-bound than resting/no ligand AChR (hα3β4 AChR [3]; [3H]ibogaine competition, p < 0.05): ~ 2.8 fold
- nH (Hill coefficient) (hα3β4 AChR [1]): 1.24 ± 0.07
- fold higher potency than PCP in inhibiting (±)-epibatidine-induced Ca2+ influx (hα3β4 AChR [1]; ibogaine IC50 versus PCP IC50): ~ 9 fold

Compound: [^3H]ibogaine
- specific activity (number of binding sites, Bmax) (hα3β4 AChR [6]; HEK293-hα3β4 membranes, x-intersect of Scatchard plot): 3.9 ± 0.4 pmol/mg protein
- Kd (hα3β4 AChR [6]; resting (no ligand) state, Rosenthal-Scatchard plot): 0.46 ± 0.06 µM

Source: paper PMC4609575 (The international journal of biochemistry & cell biology, 2010)
